Test results as given in patent US20110321190A1, “METHOD OF POSITIVE PLANT SELECTION USING SORBITOL DEHYDROGENASE” (Metabolix, Inc., priority 2009, published 2011).
Entries after “also recorded” stand apart in the source; their conditions may differ.

Columns and labels:
[1] = test system: Arabidopsis thaliana leaf and root explants; experiment: Calli growth of Arabidopsis thaliana leaf and root explants in the presence of different carbon sources; assay type: cell-based; details: sole carbon source as in Example 1; 4 weeks dark incubation at 25° C.
Procedure: Growth of cultures of Arabidopsis thaliana, a model dicot species, were also examined to determine if they were able to grow in the presence of sorbitol as a sole carbon source. Leaf and root explants were excised from sterile seedlings of Arabidopsis and were plated on medium containing maltose, fructose, or sorbitol, or no carbon supplement as described in Example 1.

[2] = test system: switchgrass (Panicum virgatum L. cv. 'Alamo') callus cultures; experiment: Growth of switchgrass callus cultures in the presence of different carbon sources; assay type: cell-based; details: wild-type callus; sole carbon source: maltose 83.3 mM, fructose 111 mM, sorbitol 41.2 mM; 4 weeks dark incubation at 28° C.
Excerpt: The in vitro response of various plants grown on medium supplemented with different sugar sources was investigated. For these purposes, switchgrass (Panicum virgatum L. cv. ‘Alamo’) was chosen as a representative monocot species. Highly embryogenic callus cultures of switchgrass were initiated from mature caryopses according to established procedures (Denchev, P. D. and B. V. Conger, Crop Sci., 34: 1623-1627 (1994)) and transferred to callus multiplication media [media consists of MS basal salts (product#MS002, Caisson Laboratories, North Logan, Utah, USA), 6-benzylaminopurine (BAP, […]), 2,4-dichlorophenoxyacetic acid (2,4-D, […]), and agar (8 g/L agar), pH 5.6]. The media was supplemented with carbon sources as indicated in the following concentrations: maltose (83.3 mM), fructose (111 mM), sorbitol (41.2 mM), or no carbon source. After 4 weeks of dark incubation at 28° C., the callus multiplication ability in the presence of various carbon supplements or no carbon supplement was visually examined.

tobacco leaf pieces = experiment: Callus induction and shoot regeneration from tobacco leaves on different sugars as sole carbon source; assay type: cell-based; details: sole carbon source: sorbitol 16 g/L, fructose 15.8 g/L; 4 weeks in tissue culture
Procedure: To test whether sorbitol dehydrogenase can be used as a positive selection marker in tobacco, pieces of tobacco leaves were tested on media containing different sugars as a sole carbon source.
Sterile grown tobacco leaves were cut into pieces of approximately 0.5-1 cm^2. Leaf pieces were transferred onto MS media containing minimal organics (MSP002 from Caisson Laboratories, North Logan, Utah, USA), 1 mg/L 6-BAP (6-benzylaminopurine) in 1N NaOH, 100 ug/L NAA (α-naphtahalene acetic acid), and the following carbon sources: no sugar; sorbitol, (16 g/L); fructose, (15.8 g/L); sucrose (30 g/L). Explants were maintained in tissue culture for 4 weeks with the following light cycle: 16 hrs in the light at 23° C.; 8 hrs in the dark at 20° C.; relative humidity approximately 45%.

tomato cells = details: examples of the cited Trulson patents; cited from earlier work
[3] = test system: switchgrass embryogenic callus cultures; experiment: Agrobacterium-mediated transformation of switchgrass with pMBXS323 and selection on sorbitol as sole carbon source; assay type: cell-based; details: medium with sorbitol as sole carbon source; 4-6 wks in the dark at 28° C.
Procedure: Agrobacterium-mediated transformation of switchgrass was performed as previously described (Somleva et al., 2002; Somleva, 2006). Highly embryogenic callus cultures were co-cultured with Agrobacterium tumifaciens strain AGL1 (Lazo et al., 1991) harboring pMBXS323 (FIG. 2) for three days in the dark at 28° C. The Agrobacterium treated cultures were incubated on a medium without selection for three to five days and then were transferred to medium containing sorbitol as the sole carbon source. […] These portions were carefully separated from the main callus and transferred to fresh selection medium for further callus proliferation. Upon transfer to regeneration medium containing sorbitol as the sole carbon source, these calli sectors developed green pigmentation within 3-5 days and eventually formed green adventitious shoots and emblings (somatic embryo derived plantlets) (FIGS. 3a-b).

Row | Compound | callus growth of root and leaf cultures [1] | callus multiplication ability (visually examined) [2] | growth of tomato cells on the carbon source (tomato cells) | also measured
1 | O=C(CO)[C@@H](O)[C@H](O)[C@H](O)CO [fructose] | considerable callus growth | able to proliferate normally and displayed considerable callus growth | – | callus generation / induction (tobacco leaf pieces): Callus induction; shoot regeneration (tobacco leaf pieces): shoot regeneration
2 | OC[C@H]1O[C@@H](O[C@H]2[C@H](O)[C@@H](O)C(O)O[C@@H]2CO)[C@H](O)[C@@H](O)[C@H]1O (stereo partly shown) [lactose] | – | – | do not grow | –
3 | OC[C@H]1O[C@H](O[C@H]2[C@H](O)[C@@H](O)[C@H](O)O[C@@H]2CO)[C@H](O)[C@@H](O)[C@@H]1O [maltose] | considerable callus growth | able to proliferate normally and displayed considerable callus growth | – | –
4 | OC[C@@H](O)[C@@H](O)[C@H](O)[C@H](O)CO [mannitol] | – | – | do not grow | –
5 | OCc1ccccc1O[C@@H]1O[C@H](CO)[C@@H](O)[C@H](O)[C@H]1O [salicin] | – | – | do not grow | –
6 | OC[C@@H](O)[C@@H](O)[C@H](O)[C@@H](O)CO [sorbitol] | little to no growth | remained dormant with minimal or no incremental growth; also recorded: reduced growth | do not grow | callus generation / induction (tobacco leaf pieces): Inhibited callus generation; shoot regeneration (tobacco leaf pieces): inhibited shoot regeneration
7 | OC[C@H]1O[C@H](O[C@H]2O[C@H](CO)[C@@H](O)[C@H](O)[C@H]2O)[C@H](O)[C@@H](O)[C@@H]1O [trehalose] | – | – | do not grow | –
8 | pMBXS323: pCAMBIA3300-derived plant transformation plasmid with CaMV35S promoter, hsp70 intron and sdh gene from Pseudomonas sp. KS-E1806 | – | – | – | calli clumps showing formation of new growth [3]: 30-50%
